According to the supplement of paper PMC4862054:

The molecules below were run on BT-549 (assay: drug sensitivity score (DSS), CellTiter-Glo (DSS (AUC-based score)); higher = stronger drug effect (viability inhibition or cytotoxicity); extreme values may be limits of the assay). Conditions: incubation time: 72 h.
Method in brief: (§1)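 Using 20 µl of cell suspension per well, breast cancer cell lines were seeded into 384-well plates pre-loaded with compound at 5 concentrations in 10-fold steps across a compound-specific 10,000-fold range. Incubation lasted 72 h, after which CellTox Green fluorescence at 485/520 nm and then CellTiter-Glo luminescence, following 10 min at room temperature, were recorded. Each plate was normalised to 0.1 % DMSO and a positive kill control before the drug sensitivity score was derived from the area under the fitted dose-response curve.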
Molecule `Oc1nc(-c2ccc(C(F)(F)F)cc2)nc2c1CSCC2` [XAV-939] has a drug sensitivity score of 0.
Work on `NC(=O)Nc1cc(-c2cccc(F)c2)sc1C(=O)N[C@H]1CCCNC1` [AZD7762] yielded a drug sensitivity score of 8.18.
With `N.N.[Cl][Pt][Cl]` [Cisplatin] the drug sensitivity score was 0.
`CN[C@@H]1C[C@H]2O[C@@](C)([C@@H]1OC)n1c3ccccc3c3c4c(c5c6ccccc6n2c5c31)C(=O)N[C@H]4O` [UCN-01] showed a drug sensitivity score of 21.6.
In the case of `C[C@@H](Oc1cc(-c2cnn(C3CCNCC3)c2)cnc1N)c1c(Cl)ccc(F)c1Cl` [Crizotinib], the drug sensitivity score is reported as 0.
Molecule `CC1(C)NC(=O)N(c2ccc([N+](=O)[O-])c(C(F)(F)F)c2)C1=O` [Nilutamide] has a drug sensitivity score of 0.
`CCCCCCCCCCCCCCCCCCOP(=O)([O-])OC1CC[N+](C)(C)CC1` [Perifosine] showed a drug sensitivity score of 0.
For `O=C(CCCCCCC(=O)Nc1ccc([C@H]2O[C@@H](CSc3nc(-c4ccccc4)c(-c4ccccc4)o3)C[C@@H](c3ccc(CO)cc3)O2)cc1)NO` [Tubacin], the drug sensitivity score was 2.95.
Molecule `O=C(O)c1ccc(-c2c[nH]c3ncc(-c4ccccc4)cc23)cc1C1CCCC1` has a drug sensitivity score of 0.
With `N#CCNC(=O)c1ccc(-c2ccnc(Nc3ccc(N4CCOCC4)cc3)n2)cc1` [Momelotinib] the drug sensitivity score was 6.02.
For `COc1cc2ncnc(Nc3ccc(F)c(Cl)c3)c2cc1NC(=O)/C=C/CN1CCCCC1` [Dacomitinib], the drug sensitivity score was 1.11.
Molecule `CS(=O)(=O)c1ccc(C2=C(c3ccccc3)C(=O)OC2)cc1` [Rofecoxib] has a drug sensitivity score of 0.

The molecules below were run on MDA-MB-436 in the same assay as above. Conditions: incubation time: 72 h.
Method in brief: as §1
`Oc1nc(-c2ccc(C(F)(F)F)cc2)nc2c1CSCC2` [XAV-939] gave a drug sensitivity score of 0.
Work on `NC(=O)Nc1cc(-c2cccc(F)c2)sc1C(=O)N[C@H]1CCCNC1` [AZD7762] yielded a drug sensitivity score of 5.18.
Molecule `N.N.[Cl][Pt][Cl]` [Cisplatin] has a drug sensitivity score of 0.
Work on `CN[C@@H]1C[C@H]2O[C@@](C)([C@@H]1OC)n1c3ccccc3c3c4c(c5c6ccccc6n2c5c31)C(=O)N[C@H]4O` [UCN-01] yielded a drug sensitivity score of 20.9.
For `C[C@@H](Oc1cc(-c2cnn(C3CCNCC3)c2)cnc1N)c1c(Cl)ccc(F)c1Cl` [Crizotinib], the drug sensitivity score was 0.
For `CC1(C)NC(=O)N(c2ccc([N+](=O)[O-])c(C(F)(F)F)c2)C1=O` [Nilutamide], the drug sensitivity score was 0.
For `CCCCCCCCCCCCCCCCCCOP(=O)([O-])OC1CC[N+](C)(C)CC1` [Perifosine], the drug sensitivity score was 0.0848.
`O=C(CCCCCCC(=O)Nc1ccc([C@H]2O[C@@H](CSc3nc(-c4ccccc4)c(-c4ccccc4)o3)C[C@@H](c3ccc(CO)cc3)O2)cc1)NO` [Tubacin] showed a drug sensitivity score of 0.
`O=C(O)c1ccc(-c2c[nH]c3ncc(-c4ccccc4)cc23)cc1C1CCCC1` showed a drug sensitivity score of 0.
In the case of `N#CCNC(=O)c1ccc(-c2ccnc(Nc3ccc(N4CCOCC4)cc3)n2)cc1` [Momelotinib], the drug sensitivity score is reported as 0.
`COc1cc2ncnc(Nc3ccc(F)c(Cl)c3)c2cc1NC(=O)/C=C/CN1CCCCC1` [Dacomitinib] gave a drug sensitivity score of 0.907.
Work on `CS(=O)(=O)c1ccc(C2=C(c3ccccc3)C(=O)OC2)cc1` [Rofecoxib] yielded a drug sensitivity score of 0.

Each molecule was assayed on MCF-10A in the same assay as above. Conditions: incubation time: 72 h.
Method in brief: as §1
With `Oc1nc(-c2ccc(C(F)(F)F)cc2)nc2c1CSCC2` [XAV-939] the drug sensitivity score was 0.
`NC(=O)Nc1cc(-c2cccc(F)c2)sc1C(=O)N[C@H]1CCCNC1` [AZD7762] showed a drug sensitivity score of 3.48.
With `N.N.[Cl][Pt][Cl]` [Cisplatin] the drug sensitivity score was 0.
For `CN[C@@H]1C[C@H]2O[C@@](C)([C@@H]1OC)n1c3ccccc3c3c4c(c5c6ccccc6n2c5c31)C(=O)N[C@H]4O` [UCN-01], the drug sensitivity score was 27.8.
`C[C@@H](Oc1cc(-c2cnn(C3CCNCC3)c2)cnc1N)c1c(Cl)ccc(F)c1Cl` [Crizotinib] showed a drug sensitivity score of 0.
For `CC1(C)NC(=O)N(c2ccc([N+](=O)[O-])c(C(F)(F)F)c2)C1=O` [Nilutamide], the drug sensitivity score was 0.
For `CCCCCCCCCCCCCCCCCCOP(=O)([O-])OC1CC[N+](C)(C)CC1` [Perifosine], the drug sensitivity score was 0.579.
With `O=C(CCCCCCC(=O)Nc1ccc([C@H]2O[C@@H](CSc3nc(-c4ccccc4)c(-c4ccccc4)o3)C[C@@H](c3ccc(CO)cc3)O2)cc1)NO` [Tubacin] the drug sensitivity score was 0.
`O=C(O)c1ccc(-c2c[nH]c3ncc(-c4ccccc4)cc23)cc1C1CCCC1` gave a drug sensitivity score of 0.
`N#CCNC(=O)c1ccc(-c2ccnc(Nc3ccc(N4CCOCC4)cc3)n2)cc1` [Momelotinib] showed a drug sensitivity score of 5.18.
`COc1cc2ncnc(Nc3ccc(F)c(Cl)c3)c2cc1NC(=O)/C=C/CN1CCCCC1` [Dacomitinib] was tested, and the drug sensitivity score was 16.9.
`CS(=O)(=O)c1ccc(C2=C(c3ccccc3)C(=O)OC2)cc1` [Rofecoxib] gave a drug sensitivity score of 0.

What follows are molecules tested on MFM-223 in the same assay as above. Conditions: incubation time: 72 h.
Method in brief: as §1
Work on `Oc1nc(-c2ccc(C(F)(F)F)cc2)nc2c1CSCC2` [XAV-939] yielded a drug sensitivity score of 0.
Molecule `NC(=O)Nc1cc(-c2cccc(F)c2)sc1C(=O)N[C@H]1CCCNC1` [AZD7762] has a drug sensitivity score of 0.
In the case of `N.N.[Cl][Pt][Cl]` [Cisplatin], the drug sensitivity score is reported as 0.
